Laboratory results taken from US5691328A, “Phosphoethanolamine conjugates of vitamin D compounds” (Clarion Pharmaceuticals Inc., priority 1996, dated 1997).
Like-named read-outs stand apart in the source and are kept apart here.

Tests used:
[1] = system: MDA-MB-231 Human Breast Cancer Cell; assay: in vitro MDA-MB-231 Human Breast Cancer Cell inhibition assay (sulforhodamine B); assay type: cell-based; settings: at 100 μM; 48 hours; FIG. 1
Excerpt: FIG. 1 is a graphical representation of results from an in vitro MDA-MB-231 Human Breast Cancer Cell inhibition assay of a compound of the invention, designated CPR 2005, in comparison with vitamin D3.
(§1) 1. Human tumor cell lines, obtainable from the American Type Culture Collection (ATCC):
a. MDA-MB-231 (ATCC HTB-26): an estrogen receptor negative human breast carcinoma cell line (attachment dependent); and
a. For cell line 1-a: Dulbecco's Modified Eagle's Medium (DMEM) plus 10% Fetal Bovine Serum (FBS); and
(§2) 3. Standard protocol for culturing cell lines: in T-75 or T-150 flasks; 37° C.; 95% air, 5% CO2; 100% humidity;
a. […]
(§3) h. Read absorbance at 562 nm using a standard 96-well microtiler plate reader. Absorbance readings are linear with dye concentrations below 1.8 absorbance units. To reduce absorbance, decrease wavelength at which measurements are taken;
(§4) single point reading: the higher the absorbance, the higher the […]; […]
(§5) initial control cell number (ICCN)--no test compound present in culture medium, end point was determined at the time of treatment;
(§6) final control cell number (FCCN)--no test compound present in culture medium, end point was determined at […] after treatment;
(§7) final cell number (FCN)--test compound present in culture medium, end point was determined at 48 hours after treatment; […]
(§8) FCN=A(test compound, 48 hours)-A(Background) [formula] where A is absorbance. […]

[2] = system: HT-29 Human Colon Cancer Cells; assay: in vitro HT-29 Human Colon Cancer Cells inhibition assay (sulforhodamine B); assay type: cell-based; settings: at concentrations above 30 μM; 48 hours; FIG. 2
Excerpt: FIG. 2 is a graphical representation of results from an in vitro HT-29 Human Colon Cancer Cells inhibition assay of a compound of the invention, designated CPR 2005, in comparison with Vitamin D3.
as §1
b. HT-29 (ATCC HTB-38): a human colon caminoma cell line (attachment dependent).
b. For cell line 1-b: 1:1 DMEM and Ham's F-12 (DMEM/F12) plus 10% FBS.
as §2
a. […]
as §3, §4, §5, §6, §7, §8

[3] = system: PAM-212 Mouse Keratinocytes; assay: in vitro PAM-212 Mouse Keratinocytes inhibition assay (anti-psoriasis); assay type: cell-based; settings: at concentrations above 30 μM, 48 hours, FIG. 3
Excerpt: FIG. 3 is a graphical representation of results from an in vitro PAM-212 Mouse Keratinocytes inhibition assay of a compound of the invention, designated CPR 2005, in comparison with vitamin D3.
Psoriasis is a chronic inflammatory dermatosis characterized, in part, by hyper-proliferation of keratinocytes and release of pro-inflammatory cytokines. Compounds that reduce hyperproliferation of keratinocytes in vitro are likely to have utility in the control of psoriasis.
1. Cell line: PAM-212 murine keratinocyte cell line isolated and cultivated from newborn BALB/c mice (see S. H. Yuspa et al., Cancer Research, Vol. 40, pp. 4694-4703, December, 1980) that appears to retain many characteristics of normal keratinocytes.
2. Culture medium: 1:1 DMEM and Ham's F-12 with 10% FBS.
3. Culture conditions are the same as those described in part 3 of the assay protocol for anti-tumor activity.
4. Methodology is the same as that described in part 4 of the assay protocol for anti-tumor activity, except that, with reference to part 4(b) of the assay protocol for anti-tumor activity, cell concentration in this case is adjusted to 1,000 cells per 100 μL (rather than 5,000 cells per 100 μL).
5. End point determination and analysis are as described in part 5 of the assay protocol for anti-tumor activity.

[4] = system: RAW 264.7 murine monocyte/macrophage line; assay: Assay for Anti-inflammatory Activity by Inhibition of Macrophage Chemiluminescence (respiratory burst, PMA-stimulated mouse macrophages); assay type: cell-based
Excerpt: The RAW 264.7 cell line (available from the ATCC under accession no. TIB 71) is a murine monocyte/macrophage line the cells of which show many of the differentiative functions of a macrophage. Like macrophages, the cells are capable of phagocytosis and undergo an oxidative burst (increased oxygen consumption) and production of oxygen radicals (e.g., superoxide) in response to appropriate signals. Agents that inhibit the activation of these cells in vitro, so as to inhibit the respiratory burst and corresponding production of oxygen radicals associated with the activation, are therefore inhibitors of macrophage activation and critical steps in inflammatory processes.
The respiratory burst and corresponding production of oxygen radicals that accompany macrophage activation can be measured in a variety of ways, including chemiluminescence based on the reaction of the oxygen radicals with luminol added to the culture medium (see M. A. Trush et at., 1978, "The Generation of Chemiluminescence by Phagocytic Cells." Methods in Enzymology 57: 462-494). Indeed, chemiluminescence generated from luminol in the culture medium of macrophage cell lines is recognized in the art as a marker of macrophage activation.
1. Cell line: Raw 264.7 (ATCC TIB-71, attachment dependent);
2. Culture medium: DMEM with 10% FBS;
as §2
a. Cell line is passaged when approximately 80% confluent; with trypsin (1 mg/ml) and EDTA ([…] in ca-MG free Hank's balanced salt solution); at a 1:4 to 1:5 split;
b. All procedures are performed aseptically in a class II biological safety cabinet using standard BL-2 containment procedures. In order to prevent genetic drift in stock cell lines, fresh cultures are prepared at approximately monthly intervals with cells thawed from liquid nitrogen storage.
a. After cell passage, count cells with a hemacytometer;
b. Adjust cell concentration to approximately 1,000,000 cells per mL;
c. Suspend cells in DMEM lacking phenol red and without FBS;
d. Pipette 1 mL of cell suspension into a standard luminometer cuvet (12×75), commercially obtainable from Analytical Luminescence Laboratories, San Diego, Calif., USA;
e. Add luminol to final concentration of 0.2 μM;
f. Add test compound dissolved in phosphate buffered saline (PBS), or in DMSO for the comparative compound, vitamin D3, for final concentration levels ranging from 0 to 30 μM;
g. Add 100 nanograms of phorbol myristate acetate (PMA); and
h. Wait 1 minute and read photo counts (i.e., luminescence) on a Monolight 2010 luminometer available from Analytical Luminescence Laboratories, San Diego.
Background--no test compound present; no PMA present;
Control--no test compound present;
Calculate: [formula] where L is luminescence. 6.

[5] = system: PMA-Induced Inflammation in Ears of CD-1 Mice; assay: PMA-induced inflammation in mouse ears; assay type: in vivo, mouse (CD-1); settings: 6 hours
Procedure: A common in vivo model for the evaluation of anti-inflammatory agents is PMA-induced inflammation in mouse ears. This method is described in "Pharmacological Methods in the Control of Inflammation", Joseph Y. Chang and Alan J. Lewis (eds), Alan R. Liss, Inc., N.Y., pp 221-223. In this assay, edema, which is a characteristic of inflammation, is quantified by determining ear thickness or ear weight approximately 6 hours after applying PMA to the ear.
1. Mice: Male CD-1, 21-24 g (Product Number 3002) obtainable from Harlan Sprague Dawley, Indianapolis, Ind., USA;
a. Prepare 0.01% (w/v) PMA in a mixture of equal volumes of acetone and ethanol;
b. Prepare 0.01% (w/v) PMA and 5% (w/v) test compound in a mixture of equal volumes of acetone and ethanol;
c. Divide 9 mice into 3 groups of 3 mice each;
d. Leave one group of mice untreated;
e. Treat the second group of mice by applying 20 μL of PMA solution to both ears using a micropipetter;
f. Treat the third group of mice by applying 20 μL of PMA solution to the right ear and 20 μL of PMA/test compound solution to the left ear;
g. Wait 6 hours and euthanize the mice in a CO2 chamber;
h. Cut the ears and punch out circles of 6-mm diameter; and
I. Measure the weight of three appropriate ear punches in the same group together.

[6] = Mus musculus, RAW264.7, read-out: % Inhibition of Respiratory Burst

Structure (SMILES) | inhibition of MDA-MB-231 cell growth [1] | inhibition of HT-29 cell growth [2] | inhibition of keratinocyte proliferation [3] | inhibition at 1 µM ([4]; RAW264.7, Concentration 1 μM, PMA-Stimulated Mouse Macrophages, read-out: % Inhibition of Respiratory Burst) | inhibition at 3 µM ([4]; RAW264.7, Concentration 3 μM, PMA-Stimulated Mouse Macrophages, read-out: % Inhibition of Respiratory Burst) | inhibition at 10 µM ([4]; RAW264.7, Concentration 10 μM, PMA-Stimulated Mouse Macrophages, read-out: % Inhibition of Respiratory Burst) | inhibition at 30 µM ([4]; RAW264.7, Concentration 30 μM, PMA-Stimulated Mouse Macrophages, read-out: % Inhibition of Respiratory Burst) | inhibition of luminescence ([4]; at concentrations above 1 μM, PMA-stimulated) | Average Weight of Punched Ear, left ear ([5]; CPR 2005 + PMA (left ear), PMA (right ear, 30 mg), PMA both ears: left 34, right 28, untreated 12, 20 μL of 0.01% PMA / 5% (w/v) test compound) | inhibition of PMA-induced inflammation in mouse ear ([5]; topical, 5% (w/v) test compound) | inhibition at 1 µM [4, 6] | inhibition at 3 µM [4, 6] | inhibition at 10 µM [4, 6] | inhibition at 30 µM [4, 6]
C=C1CC[C@H](OP(=O)([O-])OCC[N+](C)(C)C)C/C1=C/C=C1\CCC[C@]2(C)[C@@H]([C@H](C)CCCC(C)C)CC[C@@H]12 [CPR 2005, (5Z,7E)-(3S)-9,10-Secocholesta-5,7,10(19)-trien-3-phosphocholine] | marked inhibition | marked inhibition | marked inhibition | 45% | 90% | 98% | 99% | marked inhibition | 15 mg | marked inhibition |  |  |  | 
C=C1CC[C@H](O)C/C1=C/C=C1\CCC[C@]2(C)[C@@H]([C@H](C)CCCC(C)C)CC[C@@H]12 [Vitamin D3, 9, 10-secocholesta-5,7,10(19)-trien-3-ol, reference compound] |  |  |  |  |  |  |  |  |  |  | 10% | 9% | 2% | 12%
